Assay results reported in publication PMC9863159, “Isolation and Identification of Lipid-Lowering Peptides from Sacha Inchi Meal” (International Journal of Molecular Sciences, 2023).
Where two headings read alike, the source gives them in different places. Peptide text beside a SMILES is read from it.

Columns and labels:
pancreatic lipase [1] = target: T1, pancreatic lipase (Sus scrofa, UniProt P00591); assay: Pancreatic lipase inhibitory activity (4-MUO fluorescence); format: biochemical; details: for inhibition at 500 µM: peptide concentration 0.5 mM, read-out: inhibitory percentage on pancreatic lipase; for IC50: read-out: IC50 against pancreatic lipase
T1 sequence (P00591 1-450): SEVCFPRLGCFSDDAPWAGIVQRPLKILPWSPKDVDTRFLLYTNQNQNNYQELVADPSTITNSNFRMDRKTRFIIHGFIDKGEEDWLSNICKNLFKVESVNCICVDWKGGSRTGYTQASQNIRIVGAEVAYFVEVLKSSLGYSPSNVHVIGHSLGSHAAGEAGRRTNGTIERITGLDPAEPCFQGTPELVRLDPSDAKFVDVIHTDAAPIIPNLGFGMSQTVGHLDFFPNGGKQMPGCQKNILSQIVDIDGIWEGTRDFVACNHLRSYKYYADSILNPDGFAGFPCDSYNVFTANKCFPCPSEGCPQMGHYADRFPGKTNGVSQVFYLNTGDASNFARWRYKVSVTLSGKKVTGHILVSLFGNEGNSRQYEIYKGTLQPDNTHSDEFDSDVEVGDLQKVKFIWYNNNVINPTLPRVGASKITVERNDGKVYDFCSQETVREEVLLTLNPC
Procedure: The sample was diluted to an appropriate concentration with Tris HCl buffer. […] The fluorescence intensity was measured at excitation wavelength λex = 320 nm and emission wavelength λem = 450 nm. A buffer (25 μL) and enzyme solution (25 μL) were added for the control group. A sample solution (25 μL) and buffer (25 μL) were added for background group. Each group of experiments was repeated 3 times. The calculation formula of pancreatic lipase inhibition rate was as follows:(1) Lipase inhibition rate (%)=(1−FLUsample−FLUbackground/FLUnegative control−FLUnegative background)×100
Among them, FLUsample was the light absorption value of the experimental group; FLUbackground was the light absorption value of the sample background group; FLUnegative control was the absorbance value of the control group without samples; and FLUnegative background was the absorbance value of the background of the control group.

pancreatic lipase [2] = target: T1, pancreatic lipase; assay: Inhibition kinetics of pancreatic lipase (Lineweaver–Burk); format: biochemical; details: read-out: equilibrium constant Ki
Procedure: In total, a 25 μL sample solution of different concentrations, a 25 μL enzyme solution, and 50 μL substrates with different concentrations were added to the 96-well plate. The fluorescence value FLU was immediately measured at the excitation wavelength λex = 320 nm and emission wavelength λem = […], every 1 min within 20 min, and each group of experiments was repeated 3 times. The slope of the “fluorescence value-time” linear fitting curve represented the reaction rate of the enzyme in the presence of the sample. The Lineweaver–Burk double reciprocal diagram was drawn to analyze the inhibition type of synthetic peptides on enzymes.

pancreatic lipase [3] = target: T1, pancreatic lipase; assay: Fluorescence quenching assay of pancreatic lipase; details: binding constant Ka, Table S2
HepG2 cells = assay: Fat accumulation (oil red O) and triglyceride content in oleic acid-induced HepG2; format: cell-based; details: orlistat positive control 2 mM, peptides at different concentrations
Procedure: The HepG2 cells (Guangzhou Health Institute, Guangzhou, China) in logarithmic growth period were starved with serum-free medium for 12 h. Then, we replaced the medium with a complete medium containing 0.5 mM oleic acid and 0.4% FBS, and cultured this for 2–4 days (replacing the new oleic acid containing medium every day). The cells were divided into groups, and samples were added to each group as follows: Normal group: 1 mL of complete medium containing 0.4% serum; Model group: 1 mL of medium containing 0.5 mM oleic acid and 0.4% FBS; Positive control group: 1 mL of medium containing 2 mM orlistat, 0.5 mM oleic acid and 0.4% FBS; Sample treatment group: adding 1 mL of samples with different concentrations (high, medium, low) and medium containing 0.5 mM oleic acid and 0.4% FBS. […] Then, the paraformaldehyde solution was discarded, PBS was washed 3 times, and 1 mL of oil red O staining solution was added to each well. After dyeing at 37 °C for 1 h, the dye solution was discarded, washed with PBS 3 times, and 1 mL of PBS was added to prevent cell drying. […] According to the instructions of the triglyceride (TG) test box, the TG content of each well was measured using the GPO-PAP method, and the protein content was measured using the BCA method. The results were expressed as the triglyceride content per gram of protein (mmol/g protein).

pancreatic lipase [4] = target: T1, pancreatic lipase; set-up: method as in PMID 36195236; details: peptides from sesame proteins ref 6; cited from earlier work
3T3-L1 preadipocytes = test system: 3T3-L1 preadipocytes; set-up: method as in doi:10.1016/j.jff.2018.05.066; details: 600 μg/mL, compared with the control ref 24; cited from earlier work
3T3-L1 cells = test system: 3T3-L1 cells; set-up: method as in PMID 31569521; details: 600 µg/mL, 3T3-L1 cells ref 25; cited from earlier work
[5] = test system: porcine pancreatic lipase; set-up: method as in PMID 31569521; details: 200 µg/mL ref 25; cited from earlier work
[6] = cited from earlier work

CSCC[C@H](NC(=O)[C@H](CC(C)C)NC(=O)[C@H](CC(C)C)NC(=O)CNC(=O)[C@@H](N)CCC(=O)O)C(=O)N[C@@H](Cc1c[nH]c2ccccc12)C(=O)N1CCC[C@H]1C(=O)N[C@@H](Cc1ccc(O)cc1)C(=O)O [EY-8] (H-EGLLMWPY-OH)
inhibition at 500 µM (pancreatic lipase [1]): 80.47 ± 0.11% | IC50 (pancreatic lipase [1]): 171 µM | Ki (pancreatic lipase [2]): 578 ± 58.1 µM

CC(C)C[C@H](NC(=O)[C@@H](N)CC(N)=O)C(=O)N[C@@H](Cc1ccc(O)cc1)C(=O)N[C@@H](Cc1ccc(O)cc1)C(=O)N[C@@H](CCCCN)C(=O)N[C@H](C(=O)N[C@H](C(=O)O)C(C)C)C(C)C [NV-7, NLYYKVV] (H-NLYYKVV-OH)
inhibition at 500 µM (pancreatic lipase [1]): 95.42 ± 0.6% | Kd (pancreatic lipase [3]; 298 K): 93.8 µM | Kd (pancreatic lipase [3]; 304 K): 106 µM | Kd (pancreatic lipase [3]; 310 K): 203 µM | Ki (pancreatic lipase [2]): 77.3 ± 7.65 µM

CC(C)[C@H](NC(=O)[C@H](Cc1ccc(O)cc1)NC(=O)[C@H](Cc1c[nH]c2ccccc12)NC(=O)[C@@H](N)Cc1c[nH]c2ccccc12)C(=O)N[C@@H](CCCCN)C(=O)O [WK-5, WWYVK] (H-WWYVK-OH)
inhibition at 500 µM (pancreatic lipase [1]): 68.9 ± 1.8% | IC50 (pancreatic lipase [1]): 246 µM | Ki (pancreatic lipase [2]): 578 ± 25.7 µM

CSCC[C@H](NC(=O)[C@H](CC(C)C)NC(=O)[C@H](CC(C)C)NC(=O)[C@@H](N)Cc1c[nH]c2ccccc12)C(=O)N[C@@H](Cc1c[nH]c2ccccc12)C(=O)N1CCC[C@H]1C(=O)N[C@@H](Cc1ccc(O)cc1)C(=O)N[C@@H](CCCCN)C(=O)O [WK-8] (H-WLLMWPYK-OH)
inhibition at 500 µM (pancreatic lipase [1]): 67.3 ± 1.1% | IC50 (pancreatic lipase [1]): 52.8 µM | Ki (pancreatic lipase [2]): 192 ± 25.3 µM

CCCCCCCCCCC[C@@H](C[C@@H]1OC(=O)[C@H]1CCCCCC)OC(=O)[C@H](CC(C)C)NC=O [orlistat]
fat (oil) accumulation in HepG2 cells, oil red O staining (HepG2 cells): significantly reduce the oil accumulation in cells

AGY
IC50 (pancreatic lipase [4]): 1180 ± 179 µM

CANPHELPNK
inhibition on triglyceride production (3T3-L1 preadipocytes): 19.5%

Leu-Leu-Val-Val-Try-Pro-Trp-Thr-Gln-Arg [PP1]
decrease of accumulation of intracellular triacylglycerol (3T3-L1 cells): 27.9% | inhibitory effect against porcine pancreatic lipase [5]: 47.95%

NIF
IC50 (pancreatic lipase [4]): 1040 ± 179 µM

NPVWKRK
inhibition on triglyceride production (3T3-L1 preadipocytes): 23.7%

QWM
IC50 (pancreatic lipase [4]): 986 ± 170 µM

VVYP
effect on hypertriglyceridemia [6]: inhibitory effect on hypertriglyceridemia
